These results are taken from patent US20100286181A1, “PYRROLE DERIVATIVES WITH ANTIBACTERIAL ACTIVITY” (ASTRAZENECA AB, priority 2006, published 2010).

Where only a bound is given, the exact number is not on record here.

Broadly, the IC50 is the concentration at which inhibition is half-maximal. High values mean weaker potency in that assay, low ones greater potency in that assay.

This assay addresses GyrB ATPase activity (E. coli GyrA, E. coli GyrB) (Escherichia coli, UniProt P0AES6). As to the kind of experiment: GyrB ATPase inhibition activity assay (ammonium molybdate/malachite green phosphate detection). It counts as biochemical. The conditions noted are these: figure quoted may be an average of two or more results. As for the experimental part: Compounds may be tested for inhibition of GyrB ATPase activity using an ammonium molybdate/malachite green-based phosphate detection assay (Lanzetta, P. A., L. J. Alvarez, P. S. Reinach, and O. A. Candia, 1979, 100: 95-97). Assays can be performed in multiwell plates in 100 μl reactions containing: 50 mM HEPES buffer pH 7.5, 75 mM ammonium acetate, 5.5 mM magnesium chloride, 0.5 mM ethylenediaminetetraacetic acid, 5% glycerol, 1 mM 1,4-Dithio-DL-threitol, 200 nM bovine serum albumin, 5 μg/ml sheared salmon sperm DNA, 2.5 nM E. coli GyrA, 2.5 nM E. coli GyrB, 250 μM ATP, and compound in dimethylsulfoxide. Reactions can be quenched with 150 μl of ammonium molybdate/malachite green detection reagent containing 1.2 mM malachite green hydrochloride, 8.5 mM ammonium molybdate tetrahydrate, and 1 M hydrochloric acid.
Compounds of the Examples could be expected to have IC50 values of <200 μg/ml in one or both assays described herein above. For Example the following results were obtained in a GyrB ATPase inhibition activity assay substantially similar to the above wherein the figure quoted may be an average of two or more results
`Cc1[nH]c(C(=O)N[C@@H]2CCN(c3nc4cccc(C(N)=O)c4s3)C[C@@H]2n2ccnn2)c(Cl)c1Cl` [Example 82, 2-[(3S,4R)-4-{[(3,4-Dichloro-5-methyl-1H-pyrrol-2-yl)carbonyl]amino}-3-(1H-1,2,3-triazol-1-yl)piperidin-1-yl]-1,3-benzothiazole-7-carboxamide] showed an IC50 below 9.77 nM. For `COC(=O)c1cnc(N2CC[C@@H](NC(=O)c3[nH]c(C)c(Cl)c3Cl)[C@@H](n3ccnn3)C2)s1` [Example 70, Methyl 2-[(3S,4R)-4-{[(3,4-dichloro-5-methyl-1H-pyrrol-2-yl)carbonyl]amino}-3-(1H-1,2,3-triazol-1-yl)-1-piperidinyl]-1,3-thiazole-5-carboxylate] the value was 12.4 nM; for `Cc1[nH]c(C(=O)N[C@H]2CCN(c3ncc(C(N)=O)s3)C[C@H]2n2ccnc2)c(Cl)c1Cl` (racemic) [Example 47, cis(±)2-[4-{[(3,4-Dichloro-5-methyl-1H-pyrrol-2-yl)carbonyl]amino}-3-(1H-imidazol-1-yl)piperidin-1-yl]-1,3-thiazole-5-carboxamide], 25.7 nM. The same measure for `Cc1[nH]c(C(=O)N[C@H]2CCN(c3ncc(C(=O)O)s3)C[C@H]2n2cnc(Cl)n2)c(Cl)c1Cl` (racemic) [Example 45, cis(±)2-(3-(3-Chloro-1H-1,2,4-triazol-1-yl)-4-{[(3,4-dichloro-5-methyl-1H-pyrrol-2-yl)carbonyl]amino}piperidin-1-yl)-1,3-thiazole-5-carboxylic acid]: below 9.77 nM.

`CCOC(=O)c1cccc2nc(N3CC[C@@H](NC(=O)c4[nH]c(C)c(Cl)c4Cl)[C@@H](n4ccnn4)C3)sc12` [Example 123, Ethyl 2-[(3S,4R)-4-{[(3,4-dichloro-5-methyl-1H-pyrrol-2-yl)carbonyl]amino}-3-(1H-1,2,3-triazol-1-yl)piperidin-1-yl]-1,3-benzothiazole-7-carboxy late] yielded an IC50 of 218 nM. In other words, the sub-micromolar range. For the compound `CO/N=C1\CN(c2nc(-c3ncnn3C)c(C(=O)O)s2)CCC1NC(=O)c1[nH]c(C)c(Cl)c1Cl` (stereo not drawn) [Example 25, 2-[(3E)-4-{[(3,4-Dichloro-5-methyl-1H-pyrrol-2-yl)carbonyl]amino}-3-(methoxyimino)piperidin-1-yl]-4-(1-methyl-1H-1,2,4-triazol-5-yl)-1,3-thiazole-5-carboxylic acid], the IC50 was below 9.77 nM.

The compound `Cc1[nH]c(C(=O)NC2CCN(c3ncc(C(=O)O)s3)CC23OCC2(CC2)CO3)c(Cl)c1Cl` (stereo not drawn) [Example 55, 2-(11-{[(3,4-Dichloro-5-methyl-1H-pyrrol-2-yl)carbonyl]amino}-5,12-dioxa-8-azadispiro[2.2.5.2]tridec-8-yl)-1,3-thiazole-5-carboxylic acid] had an IC50 below 9.77 nM. The same measure for `Cc1[nH]c(C(=O)N[C@@H]2CCN(c3nc(C(=O)NC4CC4)c(C(=O)O)s3)C[C@@H]2n2cc(Cl)nn2)c(Cl)c1Cl` [Example 110]: below 9.77 nM. For the compound `Cc1[nH]c(C(=O)N[C@@H]2CCN(c3ncc(C(=O)O)s3)C[C@@H]2n2ccnn2)c(Cl)c1Cl` [Example 101, 2-[(3S,4R)-4-{[(3,4-Dichloro-5-methyl-1H-pyrrol-2-yl)carbonyl]amino}-3-(1H-1,2,3-triazol-1-yl)piperidin-1-yl]-1,3-thiazole-5-carboxylic acid], the IC50 is below 9.77 nM. For `CNC(=O)c1nc(N2CCC(NC(=O)c3[nH]c(C)c(Cl)c3Cl)/C(=N/OC)C2)sc1C(=O)OC` (stereo not drawn) [Example 31, Methyl 2-[(3E)-4-{[(3,4-dichloro-5-methyl-1H-pyrrol-2-yl)carbonyl]amino}-3-(methoxyimino)piperidin-1-yl]-4-[(methylamino)carbonyl]-1,3-thiazole-5-carboxylate] the value was 49.4 nM; for `COC(=O)c1cnc(N2CC[C@@H](NC(=O)c3[nH]c(C)c(Cl)c3Cl)[C@@H](n3cc(Cl)nn3)C2)s1` [Example 71, Methyl 2-[(3S,4R)-3-(4-chloro-1H-1,2,3-triazol-1-yl)-4-[(3,4-dichloro-5-methyl-1H-pyrrole-2-carbonyl)amino]-1-piperidinyl]-1,3-thiazole-5-carboxylate], 40 nM.

In turn, `COCCNC(=O)c1nc(N2CC[C@@H](NC(=O)c3[nH]c(C)c(Cl)c3Cl)[C@@H](N=[N+]=[N-])C2)sc1C(=O)O` [Example 103] had an IC50 below 9.77 nM.

With `Cc1[nH]c(C(=O)N[C@@H]2CCN(c3ncc(C(=O)O)s3)C[C@@H]2N=[N+]=[N-])c(Cl)c1Cl` [Example 102], the IC50 was below 9.77 nM. In turn, `Cc1[nH]c(C(=O)N[C@H]2CCN(c3nc4cccc(C(=O)O)c4s3)C[C@H]2n2ccnc2)c(Cl)c1Cl` (racemic) [Example 44, cis(±)2-[4-{[(3,4-Dichloro-5-methyl-1H-pyrrol-2-yl)carbonyl]amino}-3-(1H-imidazol-1-yl)piperidin-1-yl]-1,3-benzothiazole-7-carboxylic acid] registered an IC50 below 9.77 nM. `COC1COC2(CN(c3ncc(C(=O)O)s3)CCC2NC(=O)c2[nH]c(C)c(Cl)c2Cl)OC1` [Example 53, 2-((rel-3S,6s,11R)-11-{[(3,4-Dichloro-5-methyl-1H-pyrrol-2-yl)carbonyl]amino}-3-methoxy-1,5-dioxa-8-azaspiro[5.5]undec-8-yl)-1,3-thiazole-5-carboxylic acid] had an IC50 below 9.77 nM. The same measure for `CO/N=C1\CN(c2nc(-c3ncnn3C)c(C(=O)OC)s2)CCC1NC(=O)c1[nH]c(C)c(Cl)c1Cl` (stereo not drawn) [Example 34, Methyl 2-[(3E)-4-{[(3,4-dichloro-5-methyl-1H-pyrrol-2-yl)carbonyl]amino}-3-(methoxyimino)piperidin-1-yl]-4-(1-methyl-1H-1,2,4-triazol-5-yl)-1,3-thiazole-5-carboxylate]: 66.8 nM; for `C=CCOC(=O)c1sc(N2CCC(NC(=O)c3[nH]c(C)c(Cl)c3Cl)/C(=N/OC)C2)nc1C(=O)NCCOC` (stereo not drawn) [Example 30, Allyl 2-[(3E)-4-{[(3,4-dichloro-5-methyl-1H-pyrrol-2-yl)carbonyl]amino}-3-(methoxyimino)piperidin-1-yl]-4-{[(2-methoxyethyl)amino]carbonyl}-1,3-thiazole-5-carboxylate]: 86.1 nM. For the compound `COC(=O)c1cnc(N2CC[C@H](NC(=O)c3[nH]c(C)c(Cl)c3Cl)[C@H](n3cc(C)nn3)C2)s1` (racemic) [Example 121, cis(±)Methyl 2-[4-{[(3,4-dichloro-5-methyl-1H-pyrrol-2-yl)carbonyl]amino}-3-(4-methyl-1H-1,2,3-triazol-1-yl)piperidin-1-yl]-1,3-thiazole-5-carboxylate], the IC50 came to 36.9 nM.

For `COCC(COC)(COC)NC(=O)c1nc(N2CC[C@@H](NC(=O)c3[nH]c(C)c(Cl)c3Cl)[C@@H](n3cc(C)nn3)C2)sc1C(=O)O` [Example 106], the IC50 was below 432 nM. `CCOC(=O)c1sc(N2CC[C@H](NC(=O)c3[nH]c(C)c(Cl)c3Cl)[C@H](n3cncn3)C2)nc1C(=O)N[C@@H](C)COC` (racemic) [Example 48, cis(±)Ethyl 2-[4-{[(3,4-dichloro-5-methyl-1H-pyrrol-2-yl)carbonyl]amino}-3-(1H-1,2,4-triazol-1-yl)piperidin-1-yl]-4-({[(1S)-2-methoxy-1-methylethyl]amino}carbonyl)-1,3-thiazole-5-carboxylate] had an IC50 of 36.5 nM.

Consider `COCCNC(=O)c1nc(N2CC[C@@H](NC(=O)c3[nH]c(C)c(Cl)c3Cl)[C@@H](n3cc(CO)nn3)C2)sc1C(=O)O` [Example 115], for which the IC50 was below 9.77 nM. For `CCOC(=O)c1sc(N2CC[C@@H](NC(=O)c3[nH]c(C)c(Cl)c3Cl)[C@@H](n3cc(C#N)nn3)C2)nc1C(=O)NCCOC` [Example 92, Ethyl 2-[(3S,4R)-3-(4-cyano-1H-1,2,3-triazol-1-yl)-4-[(3,4-dichloro-5-methyl-1H-pyrrole-2-carbonyl)amino]-1-piperidinyl]-4-(2-methoxyethylcarbamoyl)-1,3-thiazole-5-carboxylate] the value was below 9.77 nM.

As to `COCC(COC)NC(=O)c1nc(N2CC[C@@H](NC(=O)c3[nH]c(C)c(Cl)c3Cl)[C@@H](n3ccnn3)C2)sc1C(=O)O` [Example 118], the IC50 is below 9.77 nM. For `CONC(=O)c1cnc(N2CC[C@@H](NC(=O)c3[nH]c(C)c(Cl)c3Cl)[C@@H](n3ccnn3)C2)s1` [Example 120, 2-[(3S,4R)-4-{[(3,4-Dichloro-5-methyl-1H-pyrrol-2-yl)carbonyl]amino}-3-(1H-1,2,3-triazol-1-yl)piperidin-1-yl]-N-methoxy-1,3-thiazole-5-carboxamide] the value was 19.6 nM; for `COC(=O)c1cnc(N2CCC(NC(=O)c3[nH]c(C)c(Cl)c3Cl)C3(C2)OCC(C)(C)CO3)s1` (stereo not drawn) [Example 64, Methyl 2-(11-{[(3,4-dichloro-5-methyl-1H-pyrrol-2-yl)carbonyl]amino}-3,3-dimethyl-1,5-dioxa-8-azaspiro[5.5]undec-8-yl)-1,3-thiazole-5-carboxylate], 155 nM.

With `CC(=O)c1nc(N2CCC(NC(=O)c3[nH]c(C)c(Cl)c3Cl)C3(C2)OCCO3)sc1C(=O)O` (stereo not drawn) [Example 12, 4-Acetyl-2-(10-{[(3,4-dichloro-5-methyl-1H-pyrrol-2-yl)carbonyl]amino}-1,4-dioxa-7-azaspiro[4.5]dec-7-yl)-1,3-thiazole-5-carboxylic acid], the IC50 is below 83.1 nM. For `COCC(COC)NC(=O)c1nc(N2CC[C@@H](NC(=O)c3[nH]c(C)c(Cl)c3Cl)[C@@H](n3cc(CC#N)nn3)C2)sc1C(=O)O` [Example 111] the value was below 9.77 nM.
